Active and inactive are the calls of the source.
Columns and labels:
Beta-lactamase [1] = target: T1, Beta-lactamase (Pseudomonas aeruginosa, UniProt Q79MP6); test: inhibition of IMP-1 beta-lactamase activity – biochemical, epi-absorbance, selectivity assay for VIM-2 inhibitor project, dose response (AID 1920)
Beta-lactamase [2] = target: T1, Beta-lactamase; test: […] counterscreen for selective VIM-2 inhibitors: dose response biochemical high throughput screening assay to identify inhibitors of IMP-1 metallo-beta-lactamase.
Beta-lactamase [3] = target: Beta-lactamase (Salmonella choleraesuis (strain SC-B67), UniProt Q5J463); test: Epi-absorbance-based counterscreen for selective VIM-2 inhibitors: dose response biochemical high throughput screening assay to identify inhibitors of TEM-1 serine-beta-lactamase.
Chain of Beta-lactamase (Salmonella choleraesuis (strain SC-B67), UniProt Q5J463) (Q5J463 whole entry): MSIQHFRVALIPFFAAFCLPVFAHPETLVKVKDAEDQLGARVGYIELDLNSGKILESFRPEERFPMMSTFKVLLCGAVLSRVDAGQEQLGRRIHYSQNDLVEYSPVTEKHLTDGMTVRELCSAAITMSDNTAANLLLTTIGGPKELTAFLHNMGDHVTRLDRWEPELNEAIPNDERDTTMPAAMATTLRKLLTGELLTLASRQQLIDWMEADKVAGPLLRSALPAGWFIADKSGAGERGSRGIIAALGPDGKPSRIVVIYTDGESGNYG

[4] = target: Broad substrate specificity ATP-binding cassette transporter ABCG2 (Homo sapiens, UniProt Q9UNQ0); test: blockers of JC-1 export by ABCG2 – Ig-MXP3 cells, flow cytometry, dose response (AID 1690); format: functional
Chain of Broad substrate specificity ATP-binding cassette transporter ABCG2 (Q9UNQ0 whole entry): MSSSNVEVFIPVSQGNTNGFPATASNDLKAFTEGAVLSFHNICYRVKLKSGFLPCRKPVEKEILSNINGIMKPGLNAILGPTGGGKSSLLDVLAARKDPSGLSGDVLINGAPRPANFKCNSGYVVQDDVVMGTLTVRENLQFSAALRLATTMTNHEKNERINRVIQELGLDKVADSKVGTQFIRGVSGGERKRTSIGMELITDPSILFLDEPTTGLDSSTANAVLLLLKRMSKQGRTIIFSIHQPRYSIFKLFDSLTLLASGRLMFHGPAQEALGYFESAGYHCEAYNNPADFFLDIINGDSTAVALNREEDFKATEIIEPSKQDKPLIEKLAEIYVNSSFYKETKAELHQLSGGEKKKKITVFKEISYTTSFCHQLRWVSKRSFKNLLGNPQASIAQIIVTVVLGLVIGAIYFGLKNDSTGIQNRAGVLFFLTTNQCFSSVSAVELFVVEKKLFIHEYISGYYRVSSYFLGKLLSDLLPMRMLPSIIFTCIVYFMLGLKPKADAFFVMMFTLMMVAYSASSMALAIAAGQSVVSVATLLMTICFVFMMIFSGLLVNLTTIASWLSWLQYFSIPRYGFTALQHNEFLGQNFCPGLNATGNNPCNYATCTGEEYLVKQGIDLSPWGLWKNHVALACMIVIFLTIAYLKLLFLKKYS

[5] = target: ATP-dependent translocase ABCB1 (Homo sapiens, UniProt P08183); test: inhibition of P-gp mediated JC-1 efflux – Jurkat-DNR cells, flow cytometry, dose response (AID 1689); format: functional
Chain of ATP-dependent translocase ABCB1 (P08183 whole entry): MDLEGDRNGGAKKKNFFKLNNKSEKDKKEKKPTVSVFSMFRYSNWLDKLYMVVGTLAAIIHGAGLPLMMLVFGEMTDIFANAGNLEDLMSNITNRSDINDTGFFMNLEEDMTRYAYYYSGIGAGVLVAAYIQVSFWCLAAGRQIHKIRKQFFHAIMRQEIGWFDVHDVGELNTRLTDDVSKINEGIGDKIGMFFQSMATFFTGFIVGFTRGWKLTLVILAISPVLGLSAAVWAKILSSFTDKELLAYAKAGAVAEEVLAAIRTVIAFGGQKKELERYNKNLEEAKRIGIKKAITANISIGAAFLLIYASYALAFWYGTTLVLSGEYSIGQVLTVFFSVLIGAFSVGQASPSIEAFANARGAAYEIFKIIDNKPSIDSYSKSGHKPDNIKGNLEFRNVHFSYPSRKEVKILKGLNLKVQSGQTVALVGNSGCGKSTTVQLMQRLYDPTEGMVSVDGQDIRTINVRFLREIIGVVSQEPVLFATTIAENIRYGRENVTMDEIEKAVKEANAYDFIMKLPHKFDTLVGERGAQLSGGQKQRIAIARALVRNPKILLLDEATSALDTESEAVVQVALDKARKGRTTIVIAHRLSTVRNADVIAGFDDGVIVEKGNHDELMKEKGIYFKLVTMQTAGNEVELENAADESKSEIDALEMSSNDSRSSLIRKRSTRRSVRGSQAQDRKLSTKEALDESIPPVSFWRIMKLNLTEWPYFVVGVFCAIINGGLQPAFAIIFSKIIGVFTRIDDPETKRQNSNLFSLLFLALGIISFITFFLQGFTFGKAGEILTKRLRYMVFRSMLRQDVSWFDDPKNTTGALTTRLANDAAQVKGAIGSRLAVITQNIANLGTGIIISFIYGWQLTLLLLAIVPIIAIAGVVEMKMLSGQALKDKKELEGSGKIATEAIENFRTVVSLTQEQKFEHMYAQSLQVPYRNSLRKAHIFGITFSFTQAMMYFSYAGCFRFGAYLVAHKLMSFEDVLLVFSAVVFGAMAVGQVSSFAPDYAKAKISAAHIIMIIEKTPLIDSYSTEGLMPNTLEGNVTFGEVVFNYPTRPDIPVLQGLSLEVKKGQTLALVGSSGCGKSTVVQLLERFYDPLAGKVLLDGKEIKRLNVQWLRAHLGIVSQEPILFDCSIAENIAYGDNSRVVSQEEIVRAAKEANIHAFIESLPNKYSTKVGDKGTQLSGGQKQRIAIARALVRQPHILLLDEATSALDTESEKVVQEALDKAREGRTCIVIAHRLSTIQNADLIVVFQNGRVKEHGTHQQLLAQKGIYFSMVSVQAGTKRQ

Caspase-3 = target: T2, Caspase-3 (Homo sapiens, UniProt P42574); format: functional;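 further: Dose-response selectivity test against caspase-3 for candidate inhibitors of sentrin-specific proteases (SENPs)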
T2 sequence (P42574 whole entry): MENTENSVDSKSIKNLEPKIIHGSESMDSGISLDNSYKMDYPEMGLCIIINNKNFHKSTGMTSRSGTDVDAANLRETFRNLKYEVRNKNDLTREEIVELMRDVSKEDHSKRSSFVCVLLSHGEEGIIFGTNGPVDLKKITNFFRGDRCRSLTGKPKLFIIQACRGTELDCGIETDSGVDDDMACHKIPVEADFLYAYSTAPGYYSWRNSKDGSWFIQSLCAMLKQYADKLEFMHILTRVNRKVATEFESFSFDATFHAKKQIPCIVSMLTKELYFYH

[6] = target: T3, Sentrin-specific protease 7 (Homo sapiens, UniProt Q9BQF6); format: functional;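 further: Luminescence-based dose-response confirmation of ultra-high-throughput screening hits, measuring inhibition of SENP7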
T3 sequence (Q9BQF6 whole entry): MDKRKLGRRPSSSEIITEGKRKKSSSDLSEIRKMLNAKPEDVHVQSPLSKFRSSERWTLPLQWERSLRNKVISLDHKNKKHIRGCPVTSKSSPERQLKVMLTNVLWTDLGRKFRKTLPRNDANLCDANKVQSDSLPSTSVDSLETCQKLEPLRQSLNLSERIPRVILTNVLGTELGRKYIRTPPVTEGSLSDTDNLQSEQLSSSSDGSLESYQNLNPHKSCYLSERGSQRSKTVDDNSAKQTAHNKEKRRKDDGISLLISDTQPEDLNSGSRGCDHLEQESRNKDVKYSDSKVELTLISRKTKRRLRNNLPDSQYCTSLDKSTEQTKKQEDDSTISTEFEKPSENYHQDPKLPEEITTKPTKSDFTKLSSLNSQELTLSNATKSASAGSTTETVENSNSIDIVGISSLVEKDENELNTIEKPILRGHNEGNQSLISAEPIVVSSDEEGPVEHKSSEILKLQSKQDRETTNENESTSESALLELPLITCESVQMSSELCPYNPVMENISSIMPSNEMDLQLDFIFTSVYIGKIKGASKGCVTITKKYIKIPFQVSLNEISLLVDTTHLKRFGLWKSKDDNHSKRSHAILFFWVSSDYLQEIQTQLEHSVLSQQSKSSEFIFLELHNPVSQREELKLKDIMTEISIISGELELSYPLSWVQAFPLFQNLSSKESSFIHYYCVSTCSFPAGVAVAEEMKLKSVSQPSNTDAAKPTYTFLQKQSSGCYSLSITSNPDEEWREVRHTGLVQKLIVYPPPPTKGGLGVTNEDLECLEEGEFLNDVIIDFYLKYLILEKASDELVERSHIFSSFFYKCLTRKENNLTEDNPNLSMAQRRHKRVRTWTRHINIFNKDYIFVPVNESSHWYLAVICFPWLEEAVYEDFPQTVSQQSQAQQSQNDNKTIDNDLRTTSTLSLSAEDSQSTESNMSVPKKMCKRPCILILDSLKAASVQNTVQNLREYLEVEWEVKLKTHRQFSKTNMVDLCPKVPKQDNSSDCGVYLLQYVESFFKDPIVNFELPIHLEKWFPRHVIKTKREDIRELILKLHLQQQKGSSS

[7] = target: T4, Tyrosine-protein phosphatase non-receptor type 22 (Homo sapiens, UniProt Q9Y2R2); test: PTPN22 enzyme inhibitors – biochemical, fluorescence, LYP catalytic domain, selectivity assay for LMPTP inhibitor project, dose response (AID 652006); format: functional; settings: read-out: IC50_Mean
T4 sequence (Q9Y2R2 whole entry): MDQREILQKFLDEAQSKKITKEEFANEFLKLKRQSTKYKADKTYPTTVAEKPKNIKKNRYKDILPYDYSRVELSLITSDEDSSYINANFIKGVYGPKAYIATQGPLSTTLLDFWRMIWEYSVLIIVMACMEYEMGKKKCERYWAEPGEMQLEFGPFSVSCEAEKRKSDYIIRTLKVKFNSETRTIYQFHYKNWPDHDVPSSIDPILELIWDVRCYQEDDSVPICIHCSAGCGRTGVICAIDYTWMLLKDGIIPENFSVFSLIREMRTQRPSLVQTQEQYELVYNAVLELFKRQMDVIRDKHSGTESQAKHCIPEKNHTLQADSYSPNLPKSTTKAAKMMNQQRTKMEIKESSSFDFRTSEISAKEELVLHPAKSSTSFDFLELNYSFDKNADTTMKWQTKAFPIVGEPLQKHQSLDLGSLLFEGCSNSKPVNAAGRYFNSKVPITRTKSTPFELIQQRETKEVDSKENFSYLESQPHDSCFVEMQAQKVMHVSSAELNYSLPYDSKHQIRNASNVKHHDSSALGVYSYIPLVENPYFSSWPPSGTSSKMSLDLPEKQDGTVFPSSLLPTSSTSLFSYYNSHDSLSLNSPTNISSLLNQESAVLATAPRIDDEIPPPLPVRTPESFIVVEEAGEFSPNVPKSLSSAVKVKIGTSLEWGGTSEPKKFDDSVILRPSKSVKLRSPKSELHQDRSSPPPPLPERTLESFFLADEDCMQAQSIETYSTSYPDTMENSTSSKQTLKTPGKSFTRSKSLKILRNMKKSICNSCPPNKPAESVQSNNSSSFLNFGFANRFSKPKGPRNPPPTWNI

[8] = target: T5, Sentrin-specific protease 6 (Homo sapiens, UniProt Q9GZR1); format: functional;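 further: Luminescence-based dose-response confirmatory assay of SENP6 inhibition, following up an ultra-high-throughput screen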
T5 sequence (Q9GZR1 whole entry): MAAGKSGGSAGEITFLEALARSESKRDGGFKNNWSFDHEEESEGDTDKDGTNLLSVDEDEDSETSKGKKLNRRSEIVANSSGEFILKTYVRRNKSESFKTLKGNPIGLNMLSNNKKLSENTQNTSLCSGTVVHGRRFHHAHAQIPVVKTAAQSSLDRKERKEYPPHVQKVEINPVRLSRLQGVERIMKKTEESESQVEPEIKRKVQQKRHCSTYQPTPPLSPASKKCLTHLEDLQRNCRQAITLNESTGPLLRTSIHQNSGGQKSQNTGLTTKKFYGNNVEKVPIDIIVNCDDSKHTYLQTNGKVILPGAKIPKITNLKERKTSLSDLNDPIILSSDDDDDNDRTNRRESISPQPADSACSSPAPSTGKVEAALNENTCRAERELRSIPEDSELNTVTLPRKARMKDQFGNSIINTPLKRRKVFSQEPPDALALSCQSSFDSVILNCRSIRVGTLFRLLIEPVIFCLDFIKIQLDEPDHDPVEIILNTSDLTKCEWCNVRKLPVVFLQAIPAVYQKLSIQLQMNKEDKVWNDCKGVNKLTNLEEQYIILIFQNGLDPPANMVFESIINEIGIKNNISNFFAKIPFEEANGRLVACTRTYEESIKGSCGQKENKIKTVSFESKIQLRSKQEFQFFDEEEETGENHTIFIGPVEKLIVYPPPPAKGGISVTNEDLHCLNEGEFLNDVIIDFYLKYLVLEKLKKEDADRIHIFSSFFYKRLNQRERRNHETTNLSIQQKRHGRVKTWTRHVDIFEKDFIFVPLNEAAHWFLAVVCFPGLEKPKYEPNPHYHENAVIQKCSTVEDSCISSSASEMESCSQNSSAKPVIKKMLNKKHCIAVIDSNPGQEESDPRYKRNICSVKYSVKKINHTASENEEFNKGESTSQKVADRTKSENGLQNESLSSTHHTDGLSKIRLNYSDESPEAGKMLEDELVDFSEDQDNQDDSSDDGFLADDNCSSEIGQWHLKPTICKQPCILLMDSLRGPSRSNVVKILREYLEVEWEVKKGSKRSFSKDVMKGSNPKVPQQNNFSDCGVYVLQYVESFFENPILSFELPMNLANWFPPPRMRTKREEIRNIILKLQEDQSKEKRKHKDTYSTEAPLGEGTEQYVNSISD

[9] = target: T6, Sentrin-specific protease 8 (Homo sapiens, UniProt Q96LD8); format: functional;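 further: luminescence read-out of SENP8 inhibition, dose-response confirmation following an ultra-high-throughput screen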
T6 sequence (Q96LD8 whole entry): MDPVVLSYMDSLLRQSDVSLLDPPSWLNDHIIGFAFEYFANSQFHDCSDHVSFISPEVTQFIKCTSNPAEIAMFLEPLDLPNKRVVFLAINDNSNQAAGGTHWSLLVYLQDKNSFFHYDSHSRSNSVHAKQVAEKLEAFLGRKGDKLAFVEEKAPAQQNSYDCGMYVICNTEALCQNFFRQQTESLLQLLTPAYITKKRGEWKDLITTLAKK

[10] = target: T7, Low molecular weight phosphotyrosine protein phosphatase (Homo sapiens, UniProt P24666); format: functional; settings: read-out: IC50_Mean
T7 sequence (P24666 whole entry): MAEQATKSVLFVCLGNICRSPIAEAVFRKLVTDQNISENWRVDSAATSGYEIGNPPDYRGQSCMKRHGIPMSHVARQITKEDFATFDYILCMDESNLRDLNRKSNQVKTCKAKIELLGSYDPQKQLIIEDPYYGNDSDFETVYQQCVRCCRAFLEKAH

[11] = target: T7, Low molecular weight phosphotyrosine protein phosphatase; format: functional; settings: read-out: IC50_Mean; remark: listed apart in the source
Mu-type opioid receptor = Mu-type opioid receptor (Homo sapiens, UniProt P35372); format: functional, cell-based;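 further: U2OS cells with beta-arrestin recruitment to OPRM1 by beta-gal complementation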
Chain of Mu-type opioid receptor (P35372 whole entry): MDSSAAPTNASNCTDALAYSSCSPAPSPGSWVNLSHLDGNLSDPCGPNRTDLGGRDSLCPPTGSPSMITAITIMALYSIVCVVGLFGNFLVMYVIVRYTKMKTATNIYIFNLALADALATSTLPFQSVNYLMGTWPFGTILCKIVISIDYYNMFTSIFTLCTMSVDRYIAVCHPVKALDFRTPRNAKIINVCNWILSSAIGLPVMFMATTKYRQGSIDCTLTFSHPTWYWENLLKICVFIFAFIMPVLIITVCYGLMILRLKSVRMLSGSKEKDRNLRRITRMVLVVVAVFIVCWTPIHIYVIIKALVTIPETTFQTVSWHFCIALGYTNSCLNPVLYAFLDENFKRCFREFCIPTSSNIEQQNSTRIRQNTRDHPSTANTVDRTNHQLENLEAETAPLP

[12] = target: 5-hydroxytryptamine receptor 2A (Mus musculus, UniProt P35363); format: functional, cell-based;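 further: CHO-K1 cells with tagged receptor and beta-arrestin; agonist potency measured as compound-induced activation of the receptor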
Chain of 5-hydroxytryptamine receptor 2A (P35363 whole entry): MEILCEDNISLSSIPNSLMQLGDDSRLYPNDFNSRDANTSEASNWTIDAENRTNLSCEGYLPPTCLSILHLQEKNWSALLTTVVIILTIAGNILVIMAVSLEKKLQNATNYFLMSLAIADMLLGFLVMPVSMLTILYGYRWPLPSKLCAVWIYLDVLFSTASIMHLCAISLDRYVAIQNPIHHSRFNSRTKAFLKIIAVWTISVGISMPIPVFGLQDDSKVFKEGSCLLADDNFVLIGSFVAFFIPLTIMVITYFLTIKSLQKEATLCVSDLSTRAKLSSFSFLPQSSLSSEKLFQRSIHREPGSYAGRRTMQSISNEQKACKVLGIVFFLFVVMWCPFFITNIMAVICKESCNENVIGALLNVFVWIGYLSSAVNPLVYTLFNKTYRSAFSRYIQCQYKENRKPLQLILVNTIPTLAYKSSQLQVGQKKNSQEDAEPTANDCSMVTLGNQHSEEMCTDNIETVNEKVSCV

[13] = target: T8, Endoribonuclease toxin MazF (Escherichia coli K-12, UniProt P0AE70); test: activation of MazEF endoribonuclease cleavage – biochemical, fluorescence, single-stranded RNA substrate, uHTS hits, dose response (AID 588481); format: functional
T8 sequence (P0AE70 whole entry): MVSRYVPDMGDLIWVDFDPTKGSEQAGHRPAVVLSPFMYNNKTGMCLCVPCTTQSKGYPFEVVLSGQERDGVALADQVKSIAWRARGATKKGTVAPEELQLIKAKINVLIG

[14] = target: T9, Sentrin-specific protease 1 (Homo sapiens, UniProt Q9P0U3); test: Dose response confirmation of small molecule inhibitors of the catalytic domain of the SUMO protease, SENP1 in a FRET assay.; format: functional; settings: read-out: IC50_Mean
T9 sequence (Q9P0U3 whole entry, the tested form may be a part): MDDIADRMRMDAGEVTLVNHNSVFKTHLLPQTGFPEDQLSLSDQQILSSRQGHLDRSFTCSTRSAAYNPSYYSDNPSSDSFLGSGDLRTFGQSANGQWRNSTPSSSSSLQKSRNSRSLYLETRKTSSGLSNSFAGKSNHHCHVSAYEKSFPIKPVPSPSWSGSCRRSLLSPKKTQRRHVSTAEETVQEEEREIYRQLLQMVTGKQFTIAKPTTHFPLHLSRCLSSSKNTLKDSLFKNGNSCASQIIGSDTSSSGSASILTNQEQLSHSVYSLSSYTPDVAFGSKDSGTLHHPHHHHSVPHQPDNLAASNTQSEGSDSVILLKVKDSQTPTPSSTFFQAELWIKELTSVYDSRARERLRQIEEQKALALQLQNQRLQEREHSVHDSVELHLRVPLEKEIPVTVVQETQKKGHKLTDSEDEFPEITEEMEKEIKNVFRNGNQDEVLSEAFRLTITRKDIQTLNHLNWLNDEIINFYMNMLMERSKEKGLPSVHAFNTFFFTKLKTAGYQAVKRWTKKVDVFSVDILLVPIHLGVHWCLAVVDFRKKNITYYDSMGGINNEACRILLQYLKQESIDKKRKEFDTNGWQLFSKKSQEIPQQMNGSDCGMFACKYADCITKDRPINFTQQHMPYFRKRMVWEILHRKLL

[15] = target: T9, Sentrin-specific protease 1; test: SENP1 catalytic domain blockers, concentration series – biochemical, kinetic FRET, dose response (AID 651697); format: functional; settings: read-out: IC50_Mean
[16] = target: T10, Zinc finger protein mex-5 (Caenorhabditis elegans, UniProt Q9XUB2); test: potency of MEX-5 RNA-binding blockers – biochemical, C. elegans, fluorescence polarization, dose response (AID 1960)
T10 sequence (Q9XUB2 whole entry): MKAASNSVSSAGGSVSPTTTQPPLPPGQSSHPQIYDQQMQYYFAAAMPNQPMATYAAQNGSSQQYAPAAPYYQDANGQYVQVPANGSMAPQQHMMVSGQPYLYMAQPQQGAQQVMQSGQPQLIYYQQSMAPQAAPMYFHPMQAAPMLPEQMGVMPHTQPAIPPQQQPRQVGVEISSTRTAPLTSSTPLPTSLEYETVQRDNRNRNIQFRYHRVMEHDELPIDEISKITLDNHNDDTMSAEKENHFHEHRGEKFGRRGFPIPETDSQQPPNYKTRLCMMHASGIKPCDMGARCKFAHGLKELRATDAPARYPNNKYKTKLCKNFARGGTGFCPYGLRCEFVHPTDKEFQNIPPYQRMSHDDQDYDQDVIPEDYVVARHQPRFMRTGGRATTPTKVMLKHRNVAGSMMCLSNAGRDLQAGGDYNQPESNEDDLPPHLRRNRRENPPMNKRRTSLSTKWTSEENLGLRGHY

[17] = target: T8, Endoribonuclease toxin MazF; test: substrate-only fluorescence increase artefacts – biochemical, single-stranded RNase substrate, counter-screen for MazEF activator project, dose response (AID 588502); format: functional
[18] = target: T11, RNA-binding protein pos-1 (Caenorhabditis elegans, UniProt G5EF15); test: disruptors of C. elegans POS-1 RNA interaction – biochemical, fluorescence polarization, dose response (AID 1964);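 further: purified POS-1 fused to maltose binding protein made in E. coli; potency of compounds blocking POS-1 binding to fluorescent RNA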
T11 sequence (G5EF15 whole entry): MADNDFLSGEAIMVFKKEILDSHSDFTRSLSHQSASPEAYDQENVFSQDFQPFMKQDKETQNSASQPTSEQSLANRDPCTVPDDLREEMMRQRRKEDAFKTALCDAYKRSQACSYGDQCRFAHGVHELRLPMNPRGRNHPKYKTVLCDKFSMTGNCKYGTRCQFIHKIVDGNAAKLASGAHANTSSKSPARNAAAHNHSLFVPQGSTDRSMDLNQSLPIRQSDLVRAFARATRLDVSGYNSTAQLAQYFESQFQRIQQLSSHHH

T1 sequence (Q79MP6 whole entry): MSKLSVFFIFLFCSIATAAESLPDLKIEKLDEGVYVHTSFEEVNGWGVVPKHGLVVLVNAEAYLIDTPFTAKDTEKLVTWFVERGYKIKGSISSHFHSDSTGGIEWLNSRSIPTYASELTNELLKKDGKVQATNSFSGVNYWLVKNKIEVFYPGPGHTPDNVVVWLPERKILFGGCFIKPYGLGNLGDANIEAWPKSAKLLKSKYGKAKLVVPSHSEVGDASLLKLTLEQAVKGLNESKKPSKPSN

CC1=C(C(=O)O)N2C(=O)C(NC(=O)c3nn(C)cc3[N+](=O)[O-])C2SC1 (stereo not given)
IC50 (Beta-lactamase [1]): > 59.6 µM (inactive)
IC50 (Beta-lactamase [2]): > 59.6 µM (inactive)
IC50 (Beta-lactamase [3]): > 59.6 µM (inactive)

N#Cc1ccc(-c2ccc(OCC(=O)NCCc3ccccc3)cc2)cc1
EC50 [4]: 3.76 µM (active)
EC50 [5]: 11.1 µM (inactive)

O=C(/C=C/c1ccc(Br)cc1)NC(=O)c1ccccc1O
IC50 (Caspase-3): > 100 µM (inactive)
IC50 [6]: 8.1 µM (active)
IC50 [7]: 43.6 µM (inactive)
IC50 [8]: 15.2 µM (active)
IC50 [9]: 26.9 µM (active)
IC50 [10]: 22.2 µM (inactive)
IC50 [11]: 9.98 µM (active)

O=C(C1CCN(CCCc2ccccc2)CC1)N1CCCCC1
EC50 (Mu-type opioid receptor): 92.5 µM (inactive)
EC50 [12]: 76.1 µM (inactive)

COc1ccc2c(c1)c1nc3ccccc3nc1n2Cc1ccc(OC)c(OC)c1
EC50 [13]: > 99 µM (inactive)
IC50 [14]: 6.84 µM (active)
IC50 [15]: 14.1 µM (active)
EC50 [16]: 43.1 µM (active)
EC50 [17]: 87.9 µM (inactive)
EC50 [18]: 32.6 µM (active)
